One test concerns Calu-1 cells. As to the kind of experiment: Anti-proliferation (viability) of NSCLC Calu-1 cells, 3 days (Table 7, FIG. 2B). The format is cell-based. Conditions: Homo sapiens, 72 h; Calu-1 cells, 3 days, 10-point serial dilution; read-out: GI IC50 in Calu-1. The procedure, abridged: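 Seed cells, add compound in ten serially diluted concentrations, then incubate (Calu-1: 3 days; T47D: 6 days) before measuring viability.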

Another test relates to MCF7 cells. As to the kind of experiment: Anti-proliferation (viability) of MCF7 cells (Table 7, FIG. 2B). The format is cell-based. Conditions: Homo sapiens, MCF7, MCF7 cells, 3-6 days, 10-point serial dilution; read-out: GI IC50 in MCF-7.

Consider `CNc1ccc(C(=O)Nc2ccc(N(C)C)nn2)c(NC2CCC(CNC(=O)CN3CCN(c4ccc(Nc5ncc6c(C)c(C(C)=O)c(=O)n(C7CCCC7)c6n5)nc4)CC3)C2)n1` (centres unmarked) [CPD-271, 2-((3-((2-(4-(6-((6-acetyl-8-cyclopentyl-5-methyl-7-oxo-7,8-dihydropyrido[2,3-d]pyrimidin-2-yl)amino)pyridin-3-yl)piperazin-1-yl)acetamido)methyl)cyclopentyl)amino)-N-(6-(dimethylamino)pyridazin-3-yl)-6-(methylamino)nicotinamide], for which the figures for the IC50 in the test with Calu-1 cells and in the test on MCF7 cells were ≥ 50 nM and > 100 nM, respectively.

Regarding `CC(=O)c1c(C)c2cnc(Nc3ccc(N4CCN(CC(=O)NC5CC6(C5)CC(Nc5nc(NC(C)C)ccc5C(=O)Nc5ccc(N(C)C)nn5)C6)CC4)cn3)nc2n(C2CCCC2)c1=O` (centres unmarked) [CPD-272, 2-((6-(2-(4-(6-((6-acetyl-8-cyclopentyl-5-methyl-7-oxo-7,8-dihydropyrido[2,3-d]pyrimidin-2-yl)amino)pyridin-3-yl)piperazin-1-yl)acetamido)spiro[3.3]heptan-2-yl)amino)-N-(6-(dimethylamino)pyridazin-3-yl)-6-(isopropylamino)nicotinamide], the IC50 (usually the concentration needed to halve the response being measured) is ≤ 10 nM with Calu-1 cells and < 50 nM with MCF7 cells.

Regarding `[2H]C([2H])([2H])Nc1ccc(C(=O)Nc2cn(C)c(C3CC3)n2)c(NC2CCN(C(=O)CCN3CCN(c4ccc(Nc5ncc6c(C)c(C(C)=O)c(=O)n(C7CCCC7)c6n5)nc4)CC3)C2)n1` (centres unmarked) [CPD-273, 2-((1-(3-(4-(6-((6-acetyl-8-cyclopentyl-5-methyl-7-oxo-7,8-dihydropyrido[2,3-d]pyrimidin-2-yl)amino)pyridin-3-yl)piperazin-1-yl)propanoyl)pyrrolidin-3-yl)amino)-N-(2-cyclopropyl-1-methyl-1H-imidazol-4-yl)-6-((methyl-d3)amino)nicotinamide], the IC50 is ≥ 50 nM in the test with Calu-1 cells and > 100 nM in the test with MCF7 cells.

As to `CC(=O)c1c(C)c2cnc(Nc3ccc(N4CCN(CCC(=O)N5CCC(Nc6nc(NC(C)C)ccc6C(=O)Nc6cn(C)c(C7CC7)n6)C5)CC4)cn3)nc2n(C2CCCC2)c1=O` (centres unmarked) [CPD-274, 2-((1-(3-(4-(6-((6-acetyl-8-cyclopentyl-5-methyl-7-oxo-7,8-dihydropyrido[2,3-d]pyrimidin-2-yl)amino)pyridin-3-yl)piperazin-1-yl)propanoyl)pyrrolidin-3-yl)amino)-N-(2-cyclopropyl-1-methyl-1H-imidazol-4-yl)-6-(isopropylamino)nicotinamide], the IC50 in the test on Calu-1 cells is 10 to 50 nM; in the test on MCF7 cells it was > 100 nM.

As to `CC(=O)c1c(C)c2cnc(Nc3ccc(N4CCN(CC(=O)N[C@H]5CC[C@H](CNc6nc(NC(C)C)ccc6C(=O)Nc6cn(C)c(C7CC7)n6)CC5)CC4)cn3)nc2n(C2CCCC2)c1=O` [CPD-275, 2-(((trans-4-(2-(4-(6-((6-acetyl-8-cyclopentyl-5-methyl-7-oxo-7,8-dihydropyrido[2,3-d]pyrimidin-2-yl)amino)pyridin-3-yl)piperazin-1-yl)acetamido)cyclohexyl)methyl)amino)-N-(2-cyclopropyl-1-methyl-1H-imidazol-4-yl)-6-(isopropylamino)nicotinamide], the values for the IC50 in the test with Calu-1 cells and in the test on MCF7 cells were ≥ 50 nM and > 100 nM, respectively.

Take `[2H]C([2H])([2H])Nc1ccc(C(=O)Nc2cn(C)c(C3CC3)n2)c(NC[C@H]2CC[C@H](NC(=O)CN3CCN(c4ccc(Nc5ncc6c(C)c(C(C)=O)c(=O)n(C7CCCC7)c6n5)nc4)CC3)CC2)n1` [CPD-276, 2-(((trans-4-(2-(4-(6-((6-acetyl-8-cyclopentyl-5-methyl-7-oxo-7,8-dihydropyrido[2,3-d]pyrimidin-2-yl)amino)pyridin-3-yl)piperazin-1-yl)acetamido)cyclohexyl)methyl)amino)-N-(2-cyclopropyl-1-methyl-1H-imidazol-4-yl)-6-((methyl-d3)amino)nicotinamide]: the figures for the IC50 with Calu-1 cells and in the test on MCF7 cells were ≥ 50 nM and > 100 nM, respectively.

On to `CC(=O)c1c(C)c2cnc(Nc3ccc(N4CCN(CC(=O)NCC5CC(Nc6nc(NC(C)C)ccc6C(=O)Nc6cn(C)c(C7CC7)n6)C5)CC4)cn3)nc2n(C2CCCC2)c1=O` (centres unmarked) [CPD-277, 2-((3-((2-(4-(6-((6-acetyl-8-cyclopentyl-5-methyl-7-oxo-7,8-dihydropyrido[2,3-d]pyrimidin-2-yl)amino)pyridin-3-yl)piperazin-1-yl)acetamido)methyl)cyclobutyl)amino)-N-(2-cyclopropyl-1-methyl-1H-imidazol-4-yl)-6-(isopropylamino)nicotinamide], for which the IC50 is ≤ 10 nM in the test on Calu-1 cells and > 100 nM with MCF7 cells.

Take `[2H]C([2H])([2H])Nc1ccc(C(=O)Nc2cn(C)c(C3CC3)n2)c(NC2CC(CNC(=O)CN3CCN(c4ccc(Nc5ncc6c(C)c(C(C)=O)c(=O)n(C7CCCC7)c6n5)nc4)CC3)C2)n1` (centres unmarked) [CPD-278, 2-((3-((2-(4-(6-((6-acetyl-8-cyclopentyl-5-methyl-7-oxo-7,8-dihydropyrido[2,3-d]pyrimidin-2-yl)amino)pyridin-3-yl)piperazin-1-yl)acetamido)methyl)cyclobutyl)amino)-N-(2-cyclopropyl-1-methyl-1H-imidazol-4-yl)-6-((methyl-d3)amino)nicotinamide]: the results for the IC50 with Calu-1 cells and with MCF7 cells were 10 to 50 nM and > 100 nM, respectively.

As for `CC(=O)c1c(C)c2cnc(Nc3ccc(N4CCN(CC(=O)N5CCC(Nc6nc(NC(C)C)ccc6C(=O)Nc6cn(C)c(C7CC7)n6)CC5)CC4)cn3)nc2n(C2CCCC2)c1=O` [CPD-279, 2-((1-(2-(4-(6-((6-acetyl-8-cyclopentyl-5-methyl-7-oxo-7,8-dihydropyrido[2,3-d]pyrimidin-2-yl)amino)pyridin-3-yl)piperazin-1-yl)acetyl)piperidin-4-yl)amino)-N-(2-cyclopropyl-1-methyl-1H-imidazol-4-yl)-6-(isopropylamino)nicotinamide], the figures for the IC50 with Calu-1 cells and in the test with MCF7 cells were 10 to 50 nM and > 100 nM, respectively.

Turning to `CC(=O)c1c(C)c2cnc(Nc3ccc(N4CCN(CC(=O)NC5CC(Nc6nc(NC(C)C)ccc6C(=O)Nc6ccc(N(C)C)nn6)C5)CC4)cn3)nc2n(C2CCCC2)c1=O` (centres unmarked) [CPD-280, 2-((3-(2-(4-(6-((6-acetyl-8-cyclopentyl-5-methyl-7-oxo-7,8-dihydropyrido[2,3-d]pyrimidin-2-yl)amino)pyridin-3-yl)piperazin-1-yl)acetamido)cyclobutyl)amino)-N-(6-(dimethylamino)pyridazin-3-yl)-6-(isopropylamino)nicotinamide], the IC50 in the test with Calu-1 cells is ≤ 10 nM; in the test with MCF7 cells, 50 to 100 nM.

Regarding `CNc1ccc(C(=O)Nc2cc(C)on2)c(NC2CC(CNC(=O)CN3CCN(c4ccc(Nc5ncc6c(C)c(C(C)=O)c(=O)n(C7CCCC7)c6n5)nc4)CC3)C2)n1` (centres unmarked) [CPD-281, 2-((3-((2-(4-(6-((6-acetyl-8-cyclopentyl-5-methyl-7-oxo-7,8-dihydropyrido[2,3-d]pyrimidin-2-yl)amino)pyridin-3-yl)piperazin-1-yl)acetamido)methyl)cyclobutyl)amino)-6-(methylamino)-N-(5-methylisoxazol-3-yl)nicotinamide], the IC50 is 10 to 50 nM with Calu-1 cells and > 100 nM in the test with MCF7 cells.

For the compound `[2H]C([2H])([2H])Nc1ccc(C(=O)Nc2cc(C)on2)c(NC2CC(CNC(=O)CN3CCN(c4ccc(Nc5ncc6c(C)c(C(C)=O)c(=O)n(C7CCCC7)c6n5)nc4)CC3)C2)n1` (centres unmarked) [CPD-283, 2-((3-((2-(4-(6-((6-acetyl-8-cyclopentyl-5-methyl-7-oxo-7,8-dihydropyrido[2,3-d]pyrimidin-2-yl)amino)pyridin-3-yl)piperazin-1-yl)acetamido)methyl)cyclobutyl)amino)-6-((methyl-d3)amino)-N-(5-methylisoxazol-3-yl)nicotinamide], the results for the 50% inhibitory concentration (IC50) in the test with Calu-1 cells and in the test on MCF7 cells were ≤ 10 nM and 50 to 100 nM, respectively.

For `CC(=O)c1c(C)c2cnc(Nc3ccc(N4CCN(CC(=O)NC5CCC(Nc6nc(NC(C)C)ccc6C(=O)Nc6cn(C)c(C7CC7)n6)C5)CC4)cn3)nc2n(C2CCCC2)c1=O` (centres unmarked) [CPD-284, 2-((3-(2-(4-(6-((6-acetyl-8-cyclopentyl-5-methyl-7-oxo-7,8-dihydropyrido[2,3-d]pyrimidin-2-yl)amino)pyridin-3-yl)piperazin-1-yl)acetamido)cyclopentyl)amino)-N-(2-cyclopropyl-1-methyl-1H-imidazol-4-yl)-6-(isopropylamino)nicotinamide], the IC50 in the test with Calu-1 cells is ≤ 10 nM; with MCF7 cells, > 100 nM.

Consider `[2H]C([2H])([2H])Nc1ccc(C(=O)Nc2cn(C)c(C3CC3)n2)c(NC2CCC(NC(=O)CN3CCN(c4ccc(Nc5ncc6c(C)c(C(C)=O)c(=O)n(C7CCCC7)c6n5)nc4)CC3)C2)n1` (centres unmarked) [CPD-285, 2-((3-(2-(4-(6-((6-acetyl-8-cyclopentyl-5-methyl-7-oxo-7,8-dihydropyrido[2,3-d]pyrimidin-2-yl)amino)pyridin-3-yl)piperazin-1-yl)acetamido)cyclopentyl)amino)-N-(2-cyclopropyl-1-methyl-1H-imidazol-4-yl)-6-((methyl-d3)amino)nicotinamide], for which the IC50 with Calu-1 cells is 10 to 50 nM; in the test with MCF7 cells, > 100 nM.

With `CC(=O)c1c(C)c2cnc(Nc3ccc(N4CCN(CC(=O)NC5CC6(C5)CC(Nc5cc(C)ccc5C(=O)Nc5cc(C)on5)C6)CC4)cn3)nc2n(C2CCCC2)c1=O` (centres unmarked) [CPD-286, 2-((6-(2-(4-(6-((6-acetyl-8-cyclopentyl-5-methyl-7-oxo-7,8-dihydropyrido[2,3-d]pyrimidin-2-yl)amino)pyridin-3-yl)piperazin-1-yl)acetamido)spiro[3.3]heptan-2-yl)amino)-4-methyl-N-(5-methylisoxazol-3-yl)benzamide], the figures for the half-maximal inhibitory concentration (IC50) with Calu-1 cells and in the test on MCF7 cells were ≥ 50 nM and > 100 nM, respectively.

With `[2H]C([2H])([2H])Nc1ccc(C(=O)Nc2cn(C)c(C3CC3)n2)c(NC2CC(NC(=O)N3CCN(c4ccc(Nc5ncc6c(C)c(C(C)=O)c(=O)n(C7CCCC7)c6n5)nc4)CC3)C2)n1` (centres unmarked) [CPD-287, 4-(6-((6-acetyl-8-cyclopentyl-5-methyl-7-oxo-7,8-dihydropyrido[2,3-d]pyrimidin-2-yl)amino)pyridin-3-yl)-N-(3-((3-((2-cyclopropyl-1-methyl-1H-imidazol-4-yl)carbamoyl)-6-((methyl-d3)amino)pyridin-2-yl)amino)cyclobutyl)piperazine-1-carboxamide], the IC50 in the test with Calu-1 cells was ≥ 50 nM; in the test on MCF7 cells, > 100 nM.
